According to patent US20060062747A1, “Use of sweetener acids for the microbiological stabilization of foodstuffs, cosmetic products, consumer goods and pharmaceutical productions” (Nutrinova Nutrition Specialties & Food Ingredients GmbH, priority 2002, published 2006):

Assays:
[1] = pH of the test solutions and drinks
[2] = Sensory testing of sweetener acids in foods and drinks; settings: in vivo
Source text: Sweetener acids are the acids of known salts of high-intensity sweeteners such as acesulfame-K (=potassium salt of acesulfamic acid), sodium cyclamate or sodium saccharin. Sweetener acids which can be used are, for example, saccharin acid, cyclamic acid, glycyrrhicic acid and acesulfamic acid and also mixtures of two or more of these acids. Inventively preferred sweetener acids are acesulfamic acid, cyclamic acid and saccharin acid, and also mixtures of two or all three sweetener acids. On account of their low pKa of 1.5 to 2.5, the sweetener acids have never previously been considered as […]. […] The acid profile is balanced.
At the same time, the sweetener acids have, on a molar basis, a sweetening power equivalent to the corresponding sweetener salt. In addition to the described acid taste and sweet taste, no significant off-taste and aftertaste occur.

testers = assay: Pairwise comparison test for identical acid taste
Source text: Pairwise comparison test with the question: Which sample is the more acid: (forced choice, n=13)
Pairwise comparison test with the question: Which sample is the more acid? (forced choice, n=15)

Structure (SMILES): CC1=CC(=O)NS(=O)(=O)O1 [Acesulfamic acid]
- pH ([1]; Example 1, identical acid taste solutions (Table 3)): 3.07
- pH ([1]; Example 4, identical acid taste solutions (Table 9)): 3.07
- time-intensity profile of the acid taste [2]: comparable to that of malic acid
- citric acid concentration of identical acid taste (testers; Example 1, vs 203 mg/l acesulfamic acid, citric acid + 250 mg/l acesulfame-K, n=13): 137 mg/L
- acetic acid concentration of identical acid taste (testers; Example 4, vs 203 mg/l acesulfamic acid, acetic acid + 250 mg/l acesulfame-K, n=14): 190 mg/L

Structure (SMILES): O=C1NS(=O)(=O)c2ccccc21 [Saccharin acid, o-benzosulfimide]
- pH ([1]; Example 3, identical acid taste solutions (Table 7)): 3.05
- citric acid concentration of identical acid taste (testers; Example 3, vs 200 mg/l saccharin acid, citric acid + 225 mg/l saccharin sodium, n=15): 100 mg/L
